Assay results: ChEMBL document CHEMBL3045189, “Ginsenoside Re downregulates ICAM-1 expression, inhibits polymorphonuclear infiltration, and ameliorates ischemia-reperfusion injury” (2010)
Calls of active or inactive are those of the source. The rule behind the calls is not given here.

Legend:
Rattus norvegicus [1] = assay: (§1) Cardioprotective activity in Rattus norvegicus Sprague-Dawley (rat) ischemia-reperfusion injury model assessed as area at risk in myocardial tissue at 20 mg/kg, iv administered 10 min prior to ischemia-reperfusion establishment measured after 6 hr by Evans blue staining-based planimetric analysis (reference value: 49.8 +/- 3.7 %); assay type: functional, Myocardium
Rattus norvegicus [2] = assay: Downregulation of ICAM-1 expression in Rattus norvegicus Sprague-Dawley (rat) heart at 20 mg/kg, iv measured 10 min post LAD ligation by Western blot analysis relative to untreated control; assay type: functional, organism-based; parameters: dose 20 mg/kg
Rattus norvegicus [3] = assay: (§2) Cardioprotective activity in Rattus norvegicus Sprague-Dawley (rat) ischemia-reperfusion injury model assessed as decrease in myeloperoxidase activation in myocardial tissue at 20 mg/kg, iv measured 10 min prior to reperfusion measured at 6 hr by spectrophotometric analysis relative to untreated control; assay type: functional, organism-based; parameters: dose 20 mg/kg; settings: Myocardium
Rattus norvegicus [4] = assay: as §2, with “polymorphonuclear leukocytes infiltration” for “myeloperoxidase activation”, “hematoxylin-eosin staining-based light microscopy” for “spectrophotometric analysis”; assay type: functional, organism-based; parameters: dose 20 mg/kg; settings: Myocardium
Rattus norvegicus [5] = assay: as §1, with “decrease” for “area at risk”, “infarct size” for “tissue”, “tetrazolium chloride” for “Evans blue”, “42.6” for “49.8”, “3.8” for “3.7”; assay type: functional, Myocardium; parameters: scale not given: the % may be the effect or the level left

Compound: CC(C)=CCC[C@](C)(O[C@@H]1O[C@H](CO)[C@@H](O)[C@H](O)[C@H]1O)[C@H]1CC[C@]2(C)[C@@H]1[C@H](O)C[C@@H]1[C@@]3(C)CC[C@H](O)C(C)(C)[C@@H]3[C@@H](O[C@@H]3O[C@H](CO)[C@@H](O)[C@H](O)[C@H]3O[C@@H]3O[C@@H](C)[C@H](O)[C@@H](O)[C@H]3O)C[C@]12C [GINSENOSIDE RE]
- Activity (Rattus norvegicus [1]): 50.3%
- Activity (Rattus norvegicus [2]): Active
- Activity (Rattus norvegicus [3]): Active
- Activity (Rattus norvegicus [4]): Active
- Activity (Rattus norvegicus [5]): 42.6%
